EP0292023A2, “Pyrimidine derivatives” (F. HOFFMANN-LA ROCHE AG, priority 1987, dated 1988)

What was measured:
HTLV III (Stamm RF) = assay: Activity against HIV (p24 antigen capture assay in infected C8166 cells); format: cell-based; conditions: concentration giving 50% protection; C8166 cells infected with 10-fold TCD₅₀, 72 h incubation at 37°C, viral protein 24 antigen in supernatant; read-out: IC₅₀
Method: (B) Wirksamkeit gegen HIV
In diesem Versuch verwendet man HTLV III (Stamm RF), gezüchtet in C8166-Zellen (eine menschliche CD4⁺ T-Lymphoblastenlinie), RPM1 1640 Medium mit Bicarbonatpuffer, Antibiotika und 10%igem fötalem Rinderserum. Eine Zellensuspen sion wird mit der 10-fachen TCD₅₀ des Virus infiziert. Man lässt 90 Minuten bei 37°C adsorbieren. Die Zellen werden mit dem Medium gewaschen. Der Versuch wird in 6 ml Gewebekulturröhren durchgeführt. Jedes Rohr enthalt 2 x 10⁵ infizierte Zellen in 1,5 ml Medium. Es werden 15 µl einer Lösung der Substanz in wässrigem Medium oder in DMSO zugesetzt. Nach 72 Stunden Inkubation bei 37°C in einer feuchten 5% CO₂ enthaltenden Atmosphäre werden die Kulturen zentrifugiert. Ein aliquoter Teil des Ueberstandes wird solubilisiert und einem Antigenabfangversuch unterworfen unter Verwendung eines primären Antiserums mit besonderer Reaktivität gegen virales Protein 24 und eines Meerrettich-Peroxidase-Detektionssystems. Die Farbenerzeugung wird spektrophotometrisch gemessen und in Abhängigkeit der Konzentration der Testsubstanz dargestellt. Die einen 50%igen Schutz erzeugende Konzentration (IC₅₀) wird ermittelt. In diesem Test hat DFAC ein IC₅₀ von 1 µM.

[1] = system: Schaf-Lentiviren des Stammes WLC-1; assay: Activity against sheep lentivirus (protection from cytopathic effect in SCP cells); format: cell-based; conditions: minimal concentration giving 100% protection from cytopathic effect, 12 days incubation at 37°C, crystal violet staining, visual reading
Text: (A) Aktivität gegen Schaf-Lentiviren
In diesem Versuch verwendet man Schaf-Lentiviren des Stammes WLC-1, der im Plexus chorioideus (SCP) des Schafs mit 10% fötalem Rinderserum enthaltenden Medium gezüchtet wurde. Die Verbindungen werden in 96 Vertiefungen enthaltenden Platten getestet. Jede Vertiefung enthält 10⁴SCP-Zellen, die 48 Stunden inkubiert wurden. Die Testverbindungen werden, gelöst in Dimethylsulfoxid (DMSO), bis zu einer Endkonzentration von 1% DMSO hinzugefügt, zusammen mit einem Virus-Inokulum, das innert 12 Tagen einen 100%igen cytopathischen Effekt bewirkt. Nach 12-tägiger Inkubation bei 37°C werden die Platten mit Kristallviolett angefärbt. Effekt in den die Testverbindungen enthaltenden Vertiefungen wird visuell durch Vergleich mit lediglich den Virus enthaltenden Vertiefungen und nicht-infizierten Vertiefungen ermittelt. Die Wirksamkeit (MPC) ist die minimale Konzentration der Testverbindung, die einen 100%igen Schutz bewirkt. In diesem Versuch hat DFAC einen MPC von 2,5 µM.

Compound: Nc1ccn([C@@H]2O[C@H](CO)C[C@@H]2F)c(=O)n1 [DFAC, 1-(2′,3′-Dideoxy-2′-fluor-b-D-arabinofuranosyl)cytosin]
- IC50 (HTLV III (Stamm RF)): 1 µM
- MPC [1]: 2,5 µM
